From patent US9949485B2, “Use of acylsulfonamides for improving plant yield” (BAYER CROPSCIENCE AG, priority 2013, dated 2018) come the findings set out here.

The test system of test [1] is Triticum aestivum variety “AC Harvest”. Put plainly: Growth chamber trial, post-emergence spray application, grain yield at full maturity. It is filed as in vivo. Particulars: single active ingredient, dose rate 10 g ai/ha; for change in vivo at 10 g/ha / response vs control in vivo at 10 g/ha: Triticum aestivum, post-emergence; for change in vivo at 10 g/ha: grain yield difference, read-out: Difference (%) vs. UTC; for response vs control in vivo at 10 g/ha: grain yield relative to UTC (100.0); for Grain Yield, g/plant: spray at BBCH 56-61, slightly reduced water, average of five replicates.

In test [2] the test system is Triiticum aestivum seeds (TRZAS). Kind of test: Seed treatment trial, grain yield. It is filed as in vivo, Triticum aestivum. Particulars: for Difference (%) vs. UTC: grain yield difference; for Relative, %: grain yield relative to UTC (100.0).
The mark [3] stands for this setting: single active ingredient, 1 g ai/kg seed.

On to `CN/C(=N\[N+](=O)[O-])NCc1cnc(Cl)s1` [Clothianidin (I-3), clothianidin], for which, in test [1], the change in vivo at 10 g/ha is 12.3% and the response vs control in vivo at 10 g/ha came out at 112%.
Regarding `CNC(=O)Nc1ccc(S(=O)(=O)NC(=O)c2ccccc2OC)cc1` [Compound (A1), N-(2-methoxybenzoyl)-4-[(methylaminocarbonyl)amino]benzenesulfonamide], in test [1], the change in vivo at 10 g/ha was determined as 12.3%; the response vs control in vivo at 10 g/ha is 112%; the “Grain Yield, g/plant” value came out at 1.19 g/plant. In test [2] (dose rate 0.5 g ai/kg seed), the “Grain Yield, g/plant” value came to 1.90 g/plant. Moreover, in test [2] (0.5 g ai/kg seed), the “Difference (%) vs. UTC” value is “+5.6%” and the “Relative, %” value was found to be 105.6%. Further, in test [2] (setting [3]), the “Difference (%) vs. UTC” value is “+3.9%” and the “Relative, %” value is 103.9%. Besides, the “Grain Yield, g/plant” value in test [2] (single active ingredient, dose rate 1 g ai/kg seed) is 1.87 g/plant.
As for `CC1COC(Cn2cncn2)(c2ccc(Oc3ccc(Cl)cc3)cc2Cl)O1` (centres unmarked) [Difenoconazole (F-105), difenoconazole], in test [1], the change in vivo at 10 g/ha is -3.8% and the response vs control in vivo at 10 g/ha is 96.2%.
Taken in the same sequence, the figures for `N#Cc1nn(-c2c(Cl)cc(C(F)(F)F)cc2Cl)c(N)c1[S+]([O-])C(F)(F)F` (centres unmarked) [Fipronil (I-8), fipronil] were 12.3% and 112%.
The corresponding values for `O=[N+]([O-])NC1=NCCN1Cc1ccc(Cl)nc1` [Imidacloprid (I-11), imidacloprid] are 7.5% and 108%.
Regarding `OC(Cc1ccccc1Cl)(Cn1nc[nH]c1=S)C1(Cl)CC1` (centres unmarked) [Prothioconazole (F-124), prothioconazole], in test [1], the change in vivo at 10 g/ha is -3.8% and the response vs control in vivo at 10 g/ha stood at 96.2%.
As to `COC(=O)N(OC)c1ccccc1COc1ccn(-c2ccc(Cl)cc2)n1` [Pyraclostrobin (F-57), pyraclostrobin], in test [1], the change in vivo at 10 g/ha is 17% and the response vs control in vivo at 10 g/ha was determined as 117%.
For the compound `CN1COCN(Cc2cnc(Cl)s2)/C1=N\[N+](=O)[O-]` [Thiamethoxam (I-19), thiamethoxam], in test [1], the change in vivo at 10 g/ha came to 22.6%; the response vs control in vivo at 10 g/ha was 123%; the “Grain Yield, g/plant” value was 1.30 g/plant.
Regarding `CON=C(C(=O)OC)c1ccccc1CON=C(C)c1cccc(C(F)(F)F)c1` [Trifloxystrobin (F-60), trifloxystrobin], in test [1], the change in vivo at 10 g/ha is 5.7% and the response vs control in vivo at 10 g/ha was determined as 106%.
